Read-outs that look alike come from different tables or passages of the source. Where a SMILES comes first, the peptide text is derived from it. Bridges are numbered along the chain shown (N, C = ends). [ ]: non-standard residue; d: D form. The star is where a group is joined. X1 = CC[C@H](C)CCCCC(=O)*; Dab = NCC[C@H](N)C(=O)O
How the values were obtained:
[1] = Plasma pharmacokinetics after IV CMS (Period 1); conditions: for AUC(0-t) / AUC(0-inf) / clearance / Cmax / Vd / half-life / Tmax: human, in vivo, iv; for clearance: CL; for Vd: Vdss; for Tmax: median (min-max)
Experimental: (§1) During dosing Period 1, subjects in Cohorts 1, 2, and 3 received 2 to 3 doses of IV CMS (total exposure 5–10 mg/kg) based on the specific cohort regimen. During dosing Period 2, the same subjects then received 2 to 4 doses of 75 mg of CMS via aerosolized administration, and during dosing Period 3, subjects received a combination of IV and aerosolized CMS based on the specific cohort regimen. Each dosing period was followed by a washout period of at least 3 days (Table 1).
(§2) For all plasma PK collections, 3 mL samples of whole blood were drawn into collection tubes containing sodium heparin and placed immediately on ice at specified time intervals. […] The blood was centrifuged at 2500× g within 2 h of collection, and the plasma fraction was removed and frozen at −70 °C for shipment to the Analytical Pharmacology Laboratory at the University of Toledo.
(§3) The PK analysis was conducted using Phoenix™ WinNonlin® Version 6.2 (Pharsight, a Certara Company).
(§4) Concentration versus time profiles were investigated for each of the four colistin analytes. These profiles were augmented by the inclusion of estimated concentrations at additional time points, including dosing Period 1—immediately prior to the final IV dose; dosing Period 3—immediately prior to the final IV dose; and after the final IV dose. The following PK parameters were estimated for each: maximum observed concentration (Cmax), area under the plasma concentration versus time curve, AUC (e.g., AUC 0–inf), AUC 0–t) versus time curve, time to maximum observed concentration (Tmax), elimination half-life (t1/2), slope of the post-distributive terminal portion of plasma concentration versus time curve (Kel), total body clearance/bioavailability (CL/F), and the apparent steady-state volume of distribution/bioavailability ([…]). The concentrations of intravenously administered CMS, aerosolized drug, and both delivery methods used simultaneously were compared. In addition, the presence or absence of a proportionality dose-dependent effect was determined.

[2] = Period 3, Cohort 1: IV 2.5 mg/kg q12h x 2 doses + aerosol 75 mg colistin base activity q12h x 2 doses; plasma after final dose; median (min-max)
Experimental: as §1, §2, §3
Concentration versus time profiles were investigated for each of the four colistin analytes. These profiles were augmented by the inclusion of estimated concentrations at additional time points, including dosing Period 1—immediately prior to the final IV dose; dosing Period 3—immediately prior to the final IV dose; and after the final IV dose. […] In addition, the presence or absence of a proportionality dose-dependent effect was determined.

clinical = test: clinical
Experimental: as §1, §2, §3, §4

[3] = 2.5 mg/kg, Period 1, Cohort 1: IV 2.5 mg/kg colistin base activity q12h x 2 doses, plasma after final dose, mean (SD), SD
[4] = 2.5 mg/kg, Period 1, Cohort 2: IV 2.5 mg/kg colistin base activity q8h x 3 doses, plasma after final dose, mean (SD), SD
[5] = 3.3 mg/kg, Period 1, Cohort 3: IV 3.3 mg/kg colistin base activity q8h x 3 doses, plasma after final dose, mean (SD), SD
[6] = Period 2, Cohort 2: aerosol 75 mg colistin base activity q8h x 3 doses, plasma after final dose, mean (SD), SD

CC[C@H](C)CCCCC(=O)N[C@@H](CCN)C(=O)N[C@H](C(=O)N[C@@H](CCN)C(=O)N[C@H]1CCNC(=O)[C@H]([C@@H](C)O)NC(=O)[C@H](CCN)NC(=O)[C@H](CCN)NC(=O)[C@H](CC(C)C)NC(=O)[C@@H](CC(C)C)NC(=O)[C@H](CCN)NC1=O)[C@@H](C)O [colistin A] (X1-[Dab]T[Dab][Dab][Dab][dL]L[Dab][Dab]T; lactam 4-C)
AUC(0-t) [1, 3]: 21800 ng·h/mL
AUC(0-t) [1, 4]: 30400 ng·h/mL
AUC(0-inf) [1, 3]: 23800 ng·h/mL
AUC(0-inf) [1, 4]: 33000 ng·h/mL
clearance [1, 3]: 103 mL/min
clearance [1, 4]: 74.5 mL/min
Cmax [1, 3]: 3950 ng/mL
Cmax [1, 4]: 5360 ng/mL
Vd [1, 3]: 29.5 L
Vd [1, 4]: 21.7 L
half-life ([1]; 2.5 mg/kg, t1/2, Period 1, Cohort 1: IV 2.5 mg/kg colistin base activity q12h x 2 doses, plasma after final dose, mean (SD), SD): 3.32 h
half-life ([1]; 2.5 mg/kg, t1/2, Period 1, Cohort 2: IV 2.5 mg/kg colistin base activity q8h x 3 doses, plasma after final dose, mean (SD), SD): 3.47 h
Tmax ([1]; 2.5 mg/kg, Period 1, Cohort 1: IV 2.5 mg/kg colistin base activity q12h x 2 doses, plasma after final dose): 1.02 h
Tmax ([1]; 2.5 mg/kg, Period 1, Cohort 2: IV 2.5 mg/kg colistin base activity q8h x 3 doses, plasma after final dose): 0.6 h
AUC(0-t) [1, 5]: 49100 ng·h/mL
AUC(0-inf) [1, 5]: 52400 ng·h/mL
clearance [1, 5]: 64.5 mL/min
Cmax [1, 5]: 8740 ng/mL
Vd [1, 5]: 22.2 L
half-life ([1]; 3.3 mg/kg, t1/2, Period 1, Cohort 3: IV 3.3 mg/kg colistin base activity q8h x 3 doses, plasma after final dose, mean (SD), SD): 4.22 h
Tmax ([1]; 3.3 mg/kg, Period 1, Cohort 3: IV 3.3 mg/kg colistin base activity q8h x 3 doses, plasma after final dose): 1 h
half-life ([1]; elimination t1/2 (half-life, as stated in text), plasma): ~3.5 h
time concentrations stay above the target of 2 μg/mL after dosing ([1]; q8h dosing, 8 h between doses): 6 h
Tmax [2]: 1.43 (0.883 – 2.38) h
t1/2 (clinical; Period 2, Cohort 1: aerosol 75 mg colistin base activity q12h x 2 doses, plasma after final dose, mean (SD)): 8.37 h
CL/F (clinical; [6]): 8.12 (0.628) L/h
t1/2 (clinical; [6]): 7.81 (1.33) h
t1/2 (clinical; Period 2, Cohort 3: aerosol 75 mg colistin base activity q6h x 4 doses, plasma after final dose, mean (SD), SD): 26.0 (31.2) h
circulating plasma concentrations following aerosol administration alone (clinical; Period 2, aerosol only): low and not related to the dose administered
AUC(0-t) (clinical; human, in vivo, inhaled or intranasal, 75 mg, AUC(0-t),, SD): 4220 ng·h/mL
CL/F (clinical; human, in vivo, inhaled or intranasal, 75 mg, CL/F): 136 mL/min
Cmax (clinical; human, in vivo, inhaled or intranasal, 75 mg, Cmax,, SD): 493 ng/mL
Vd/F (clinical; human, in vivo, inhaled or intranasal, 75 mg, Vdss/F): 98.7 L

Reference: article PMC9029538, “Dosing Colistimethate Every 8 h Results in Higher Plasma Concentrations of Active Colistin Than Every 12-Hourly Dosing without Increase in Nephrotoxicity: A Phase 1 Pharmacokinetics Trial in Healthy Adult Volunteers” (Antibiotics, 2022)
